According to patent US9028845B2, “Chimeric immunomodulatory compounds and methods of using the same-IV” (Dynavax Technologies Corporation, priority 2001, dated 2015):
“Also recorded” adds a separate entry of the source. Marks after values point to notes of the source that are not given here.

Legend:
[1] = tested on: hepatitis B surface antigen (HBsAg); details: in vivo
PBMCs = assay: Human PBMC proliferation assay (3H-thymidine incorporation); type: cell-based; details: Experiment A; for mean cpm: 2 μg/ml
CD19+ B cells = assay: Human B cell proliferation assay (3H-thymidine incorporation); details: 2 μg/ml; for cpm1 / cpm2 / cpm3 / mean cpm / mean of both: B cells
Description: Purified human B cells from 2 donors were stimulated with 5 μg/ml P-6 or CIC for 96 h. Proliferation was assessed by ^3H-thymidine incorporation.
A CIC is considered to induce “little” human B cell proliferation if B cell proliferation in the presence of the CIC is between greater than 15 to about 30% of P-6.
Human PBMCs were isolated from heparanized blood from two normal subjects. Some PBMCs were held in reserve while the remainder was incubated with CD19+ MACS beads (Miltenyi Biotec). These cells were then passed through a magnet, separating the CD19+ B cells through positive selection. […] B cells were then cultured at 1×10^5/200 μl/well in 96-well round-bottomed plates. In some cases, PBMCs were also cultured, but at 2×10^5/200 μl/well. Cells were stimulated in triplicate with 2 μg/ml polynucleotide or CIC. The culture period was 48 hours at 37° C. At the end of the culture period, the plates were pulsed with ^3H-thymidine, 1 μCi/well, and incubated for an additional 8 hours. Then the plates were harvested using standard liquid scintillation techniques and data was collected in counts per minutes (cpm).

human PBMCs = assay: Human PBMC cytokine response assay (IFN-γ and IFN-α in cell-free medium by ELISA), with or without cPLGA; type: cell-based;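 for IFN-α (pg/ml) mean: 20 µg/mL compound for 24 hours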;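 for IFN-γ (pg/ml) mean: 20 µg/mL compound for 24 hours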
[2] = donor 28066, 20 ug/ml, 24 h, + PLGA = premixed with 100 μg/ml cPLGA
[3] = donor 28067, 20 ug/ml, 24 h, + PLGA = premixed with 100 μg/ml cPLGA
[4] = donor 28068, 20 ug/ml, 24 h, + PLGA = premixed with 100 μg/ml cPLGA
[5] = mean of Donors 1-2, 20 μg/ml, 24 h
[6] = mean of Donors 9-12, 20 μg/ml, 24 h
[7] = mean of donors 110, 112, 119, 120, Table 14
[8] = mean of donors 28065-28068, 20 ug/ml, 24 h, + PLGA = premixed with 100 μg/ml cPLGA
[9] = mean of donors 28185-28188, Table 15

## 5′-TCGTCGA-3′-HEG-5′-ACGTTCG-3′-HEG-5′-AGATGAT-3′ [Compound C-8]
[1]
  Anti-HBsAg (mIU/ml) post-first, Mean: 22 mIU/ml
  Anti-HBsAg (mIU/ml) post-second, Mean: 9294** mIU/ml
PBMCs; Donor 146, 2 μg/ml
  cpm1: 47202 cpm
  cpm2: 40790 cpm
  cpm3: 44811 cpm
PBMCs; Donor 146 mean
  mean cpm: 44268 cpm
PBMCs; Donor 147, 2 μg/ml
  cpm1: 38845 cpm
  cpm2: 39733 cpm
  cpm3: 27981 cpm
PBMCs; Donor 147 mean
  mean cpm: 35520 cpm
PBMCs; mean of Donors 146 and 147, 2 μg/ml
  mean of both: 39894 cpm
CD19+ B cells; 48 h plus 8 h 3H-thymidine pulse
  B cell proliferation, in words: cause B cells to proliferate
CD19+ B cells; Donor 146, Experiment A
  cpm1: 23815 cpm
  cpm2: 30066 cpm
  cpm3: 22969 cpm
CD19+ B cells; Donor 146 mean, Experiment A
  mean cpm: 25617 cpm
CD19+ B cells; Donor 147, Experiment A
  cpm1: 20914 cpm
  cpm2: 22370 cpm
  cpm3: 23659 cpm
CD19+ B cells; Donor 147 mean, Experiment A
  mean cpm: 22314 cpm
CD19+ B cells; donor 121, Experiment B
  cpm1: 2604 cpm
  cpm2: 12078 cpm
  cpm3: 17696 cpm
CD19+ B cells; donor 121 mean, Experiment B
  mean cpm: 10793 cpm
CD19+ B cells; donor 194, Experiment B
  cpm1: 9333 cpm
  cpm2: 9391 cpm
  cpm3: 7602 cpm
CD19+ B cells; donor 194 mean, Experiment B
  mean cpm: 8775 cpm
CD19+ B cells; mean of Donors 146 and 147, Experiment A
  mean of both: 23966 cpm
CD19+ B cells; mean of donors 121 and 194, Experiment B
  mean of both: 9784 cpm
Human PBMCs; Donor 1, 20 μg/ml, 24 h
  IFN-α (pg/ml) Donor 1: 1609 pg/mL
  IFN-γ (pg/ml) Donor 1: 1916 pg/mL
Human PBMCs; Donor 2, 20 μg/ml, 24 h
  IFN-α (pg/ml) Donor 2: 44 pg/mL
  IFN-γ (pg/ml) Donor 2: 696 pg/mL
Human PBMCs; Donor 9, 20 μg/ml, 24 h
  IFN-α Donor 9: 58
  IFN-γ Donor 9: 312
Human PBMCs; Donor 10, 20 μg/ml, 24 h
  IFN-α Donor 10: 30
  IFN-γ Donor 10: 35
Human PBMCs; Donor 11, 20 μg/ml, 24 h
  IFN-α Donor 11: 18
  IFN-γ Donor 11: 31
Human PBMCs; Donor 12, 20 μg/ml, 24 h
  IFN-α Donor 12: 49
  IFN-γ Donor 12: 28
Human PBMCs; Table 9, donor 28089
  IFN-α: 21 pg/mL
  IFN-γ: 62 pg/mL
Human PBMCs; Table 9, donor 28090
  IFN-α: 124 pg/mL
  IFN-γ: 52 pg/mL
Human PBMCs; Table 9, donor 28098
  IFN-α: 314 pg/mL
  IFN-γ: 205 pg/mL
Human PBMCs; Table 9, donor 28099
  IFN-α: 362 pg/mL
  IFN-γ: 116 pg/mL
Human PBMCs; Table 9, mean of donors
  IFN-α mean: 205 pg/mL
  IFN-γ mean: 109 pg/mL
Human PBMCs; Table 10, donor 28042
  IFN-α: 20 pg/mL
  IFN-γ: 468 pg/mL
Human PBMCs; Table 10, donor 28043
  IFN-α: 51 pg/mL
  IFN-γ: 939 pg/mL
Human PBMCs; Table 10, donor 28044
  IFN-α: 32 pg/mL
  IFN-γ: 1000 pg/mL
Human PBMCs; Table 10, donor 28045
  IFN-α: 5 pg/mL
  IFN-γ: 234 pg/mL
Human PBMCs; Table 10, mean of donors
  IFN-α mean: 27 pg/mL
  IFN-γ mean: 660 pg/mL
Human PBMCs; Table 11, donor 28042
  IFN-α: 78 pg/mL
  IFN-γ: 623 pg/mL
Human PBMCs; Table 11, donor 28043
  IFN-α: 25 pg/mL
  IFN-γ: 753 pg/mL
Human PBMCs; Table 11, donor 28044
  IFN-α: 52 pg/mL
  IFN-γ: 646 pg/mL
Human PBMCs; Table 11, donor 28045
  IFN-α: 256 pg/mL
  IFN-γ: 604 pg/mL
Human PBMCs; Table 11, mean of donors
  IFN-α mean: 103 pg/mL
  IFN-γ mean: 656 pg/mL
Human PBMCs; Table 13, donor 28156
  IFN-α: 102 pg/mL
  IFN-γ: 1612 pg/mL
Human PBMCs; Table 13, donor 28157
  IFN-α: 755 pg/mL
  IFN-γ: 742 pg/mL
Human PBMCs; Table 13, donor 28158
  IFN-α: 61 pg/mL
  IFN-γ: 340 pg/mL
Human PBMCs; Table 13, donor 28159
  IFN-α: 160 pg/mL
  IFN-γ: 197 pg/mL
Human PBMCs; Table 13, mean of donors
  IFN-α mean: 270 pg/mL
  IFN-γ mean: 723 pg/mL
Human PBMCs; donor 110, Table 14
  IFN-α: 196 pg/mL
  IFN-γ: 1152 pg/mL
Human PBMCs; donor 112, Table 14
  IFN-α: 30 pg/mL
  IFN-γ: 540 pg/mL
Human PBMCs; donor 119, Table 14
  IFN-α: 264 pg/mL
  IFN-γ: 136 pg/mL
Human PBMCs; donor 120, Table 14
  IFN-α: 42 pg/mL
  IFN-γ: 48 pg/mL
Human PBMCs; donor 28065 (high background), 20 ug/ml, 24 h, + PLGA = premixed with 100 μg/ml cPLGA, 1000 = outside assay limits
  IFN-γ (pg/ml) 28065: 1000 pg/mL
Human PBMCs; donor 28065, 20 ug/ml, 24 h, + PLGA = premixed with 100 μg/ml cPLGA
  IFN-α (pg/ml) 28065: 123 pg/mL
Human PBMCs; [2]
  IFN-α (pg/ml) 28066: 6 pg/mL
  IFN-γ (pg/ml) 28066: 19 pg/mL
Human PBMCs; [3]
  IFN-α (pg/ml) 28067: 96 pg/mL
  IFN-γ (pg/ml) 28067: 56 pg/mL
Human PBMCs; [4]
  IFN-α (pg/ml) 28068: 358 pg/mL
  IFN-γ (pg/ml) 28068: 419 pg/mL
Human PBMCs; donor 28185, Table 15
  IFN-a: 196 pg/mL
  IFN-g: 154 pg/mL
Human PBMCs; donor 28186, Table 15
  IFN-a: 31 pg/mL
  IFN-g: 25 pg/mL
Human PBMCs; donor 28187, Table 15
  IFN-a: 202 pg/mL
  IFN-g: 123 pg/mL
Human PBMCs; donor 28188, Table 15
  IFN-a: 4 pg/mL
  IFN-g: 9 pg/mL
Human PBMCs; [5]
  IFN-α (pg/ml) mean: 827 pg/mL
  IFN-γ (pg/ml) mean: 1306 pg/mL
Human PBMCs; [6]
  IFN-α mean: 39
  IFN-γ mean: 102
Human PBMCs; [7]
  IFN-α (pg/ml) mean: 133 pg/mL
  IFN-γ (pg/ml) mean: 469 pg/mL
Human PBMCs; [8]
  IFN-α (pg/ml) mean: 146 pg/mL
  IFN-γ (pg/ml) mean: 373 pg/mL
Human PBMCs; [9]
  IFN-a (pg/ml) mean: 108 pg/mL
  IFN-g (pg/ml) mean: 78 pg/mL
Human PBMCs; mean ×2, Table 15
  IFN-a (pg/ml) ×2: 217 pg/mL
Human PBMCs; mean ×4, Table 15
  IFN-g (pg/ml) ×4: 311 pg/mL
Human PBMCs; used alone (no cPLGA)
  immunomodulatory activity (IFN-γ / IFN-α secretion), in words: more active than other CG-containing CICs; also recorded: most active CICs
